# The OligoGym collection
# Bases are written 5' to 3'; sugars and linkages follow in the same order, as letters with counts (s phosphorothioate, o phosphodiester; PS: all linkages phosphorothioate). The collection does not say whether C is 5-methylated. l = locked nucleic acid (LNA); d = 2'-deoxy (DNA)
# Molecular target: Tau
# Experiment: rat primary cortical neurons, FLIPR, 25 uM ASO
row,Sequence,calcium oscillation score
1,"TGGATATAGTTAAGGC (sugars l3 d9 l4, PS)",106 % of control
2,"TGGATATAGTTAAGGC (sugars l3 d10 l3, PS)",90.5 % of control
3,"TGGATATAGTTAAGGC (sugars l4 d8 l4, PS)",117 % of control
4,"TGGATATAGTTAAGGC (sugars l4 d9 l3, PS)",107 % of control
5,"TGGATCAGAGGGTCTG (sugars l3 d10 l3, PS)",7.41 % of control
6,"TGGATGTTGCCTAATG (sugars l3 d10 l3, PS)",0 % of control
7,"TGGATGTTGCCTAATGAGCC (sugars l3 d14 l3, PS)",0 % of control
8,"TGGCCATCTTATGCTGACCA (sugars l3 d14 l3, PS)",29.4 % of control
9,"TGGCGACTTGTACACG (sugars l3 d10 l3, PS)",70.6 % of control
10,"TGGCGGTGACTGCGA (sugars l3 d9 l3, PS)",107 % of control
11,"TGGCGTTCTCGCGG (sugars l3 d8 l3, PS)",93.9 % of control
12,"TGGCTTTGGCGTTCTC (sugars l3 d10 l3, PS)",28.7 % of control
13,"TGGGTGATATTGTCCA (sugars l3 d10 l3, PS)",92.6 % of control
14,"TGGGTGATATTGTCCAGGGA (sugars l3 d14 l3, PS)",0 % of control
15,"TGGTCAAGGCTTTGGG (sugars l3 d10 l3, PS)",0 % of control
16,"TGGTTAGCCCTAAAGT (sugars l3 d10 l3, PS)",77 % of control
17,"TGGTTAGCCCTAAAGTCCCA (sugars l3 d14 l3, PS)",74.5 % of control
18,"TGGTTTATGATGGATGTTGC (sugars l3 d14 l3, PS)",0 % of control
19,"TGGTTTGTAGACTATTTGCA (sugars l3 d14 l3, PS)",0 % of control
20,"TGTAATTTTCCCTACAT (sugars l3 d11 l3, PS)",91.3 % of control
21,"TGTACACGATCTCCGC (sugars l3 d10 l3, PS)",145 % of control
22,"TGTAGACTATTTGC (sugars l3 d8 l3, PS)",30.9 % of control

row,Sequence,calcium oscillation score
1,"TGTAGACTATTTGCAC (sugars l3 d10 l3, PS)",93.3 % of control
2,"TGTAGACTATTTGCACACTG (sugars l3 d14 l3, PS)",7.41 % of control
3,"TGTCATCGCTTCCAGT (sugars l3 d10 l3, PS)",88 % of control
4,"TGTCCAAACTTTTACT (sugars l4 d8 l4, PS)",60.8 % of control
5,"TGTCCAAACTTTTACTC (sugars l4 d10 l3, PS)",65.3 % of control
6,"TGTCCAGGGACCCAATCTTC (sugars l3 d14 l3, PS)",39.9 % of control
7,"TGTCCTCACTTTACACAT (sugars l4 d12 l2, PS)",39.8 % of control
8,"TGTCGATGCTGCCG (sugars l3 d8 l3, PS)",52.2 % of control
9,"TGTCGATGCTGCCGGT (sugars l3 d10 l3, PS)",34.5 % of control
10,"TGTGATGCAGGAGTT (sugars l3 d9 l3, PS)",70.5 % of control
11,"TGTGATGCAGGAGTTG (sugars l3 d10 l3, PS)",28.7 % of control
12,"TGTTGCCTAATGAGCC (sugars l3 d10 l3, PS)",172 % of control
13,"TGTTGCCTAATGAGCCACAC (sugars l3 d14 l3, PS)",54.2 % of control
14,"TGTTTGATATTATCCT (sugars l3 d10 l3, PS)",104 % of control
15,"TTAACCAATTAACCGAACTG (sugars l3 d14 l3, PS)",122 % of control
16,"TTAACCAGCTAGTGGTGCCA (sugars l3 d14 l3, PS)",0 % of control
17,"TTAACCCTTGATCATATTTG (sugars l3 d14 l3, PS)",14.3 % of control
18,"TTAACCGAACTGCGAG (sugars l3 d10 l3, PS)",46.1 % of control
19,"TTAACTCAAATCAATTCTCA (sugars l4 d12 l4, PS)",62 % of control
20,"TTAACTCATCAACACCT (sugars l4 d9 l4, PS)",86.6 % of control
21,"TTAACTCATCAACACCTT (sugars l3 d11 l4, PS)",114 % of control
22,"TTAACTCATCAACACCTTT (sugars l3 d12 l4, PS)",84 % of control

row,Sequence,calcium oscillation score
1,"TTAACTCATCAACACCTTTT (sugars l4 d13 l3, PS)",59 % of control
2,"TTAAGTGATTAACCAATTAA (sugars l3 d14 l3, PS)",40.1 % of control
3,"TTAATTATCTGCACCTT (sugars l3 d10 l4, PS)",33.9 % of control
4,"TTAATTATTAAATCTTCTCT (sugars l4 d12 l4, PS)",60.1 % of control
5,"TTAATTCATAAATGACTATA (sugars l3 d14 l3, PS)",58.4 % of control
6,"TTAATTCATTTAATTCTCTT (sugars l4 d12 l4, PS)",86.1 % of control
7,"TTAATTTCACCCTC (sugars l3 d8 l3, PS)",44.1 % of control
8,"TTAATTTCACCCTCAG (sugars l3 d10 l3, PS)",41.7 % of control
9,"TTACAAAGTCCACTTTC (sugars l4 d9 l4, PS)",69 % of control
10,"TTACAAGCATTTCAAG (sugars l3 d10 l3, PS)",36.8 % of control
11,"TTACACCACACTGTCG (sugars l3 d10 l3, PS)",32.1 % of control
12,"TTACACCATCCAAGTC (sugars l4 d9 l3, PS)",101 % of control
13,"TTACACCATCCAAGTCA (sugars l4 d11 l2, PS)",75.5 % of control
14,"TTACACCATCCAAGTCAATG (sugars l3 d14 l3, PS)",24.2 % of control
15,"TTACACCCAAACCTAAA (sugars l4 d9 l4, PS)",92.3 % of control
16,"TTACCAATTATCTTTAAATT (sugars l4 d12 l4, PS)",61.9 % of control
17,"TTACCATCCTATCTTCT (sugars l2 d11 l4, PS)",72.7 % of control
18,"TTACCATCCTATCTTCTA (sugars l2 d13 l3, PS)",90.3 % of control
19,"TTACCCATCTTAATTCATTT (sugars l4 d14 l2, PS)",96.1 % of control
20,"TTACCCTTAAATATGC (sugars l4 d8 l4, PS)",73.3 % of control
21,"TTACTGATCATAATCCT (sugars l4 d10 l3, PS)",67.3 % of control
22,"TTACTTTCTACTCAATTCCA (sugars l3 d15 l2, PS)",60.6 % of control

row,Sequence,calcium oscillation score
1,"TTAGACCACATTTCCAT (sugars l3 d11 l3, PS)",96 % of control
2,"TTAGACTCCTTCTTTAGGCT (sugars l3 d14 l3, PS)",26.2 % of control
3,"TTAGCAGAGGAACGTG (sugars l3 d10 l3, PS)",25.9 % of control
4,"TTAGCATCAGAGGTTT (sugars l3 d10 l3, PS)",23.3 % of control
5,"TTAGCCCTAAAGTCCC (sugars l3 d10 l3, PS)",28.6 % of control
6,"TTAGCCCTAAAGTCCCAGGT (sugars l3 d14 l3, PS)",86.3 % of control
7,"TTATACAGTTGGCCCTACCA (sugars l3 d14 l3, PS)",40.5 % of control
8,"TTATTAATTATCTGCA (sugars l3 d10 l3, PS)",58.7 % of control
9,"TTATTAATTCATAAATGACT (sugars l3 d14 l3, PS)",42.3 % of control
10,"TTATTCTTTTTTTTTCCACA (sugars l2 d14 l4, PS)",30.3 % of control
11,"TTATTTACACTGTCCTT (sugars l3 d10 l4, PS)",54.1 % of control
12,"TTATTTATTCTTTTTATTA (sugars l4 d11 l4, PS)",45.2 % of control
13,"TTATTTATTCTTTTTATTAT (sugars l4 d12 l4, PS)",66.3 % of control
14,"TTATTTCCAAATTCACTTTT (sugars l1 d17 l2, PS)",166 % of control
15,"TTATTTCCAAATTCACTTTT (sugars l2 d2 l2 d10 l4, PS)",123 % of control
16,"TTATTTCCAAATTCACTTTT (sugars l2 d16 l2, PS)",182 % of control
17,"TTATTTCCAAATTCACTTTT (sugars l3 d14 l3, PS)",≥ 200 % of control
18,"TTATTTCCAAATTCACTTTT (sugars l4 d11 l2 d1 l2, PS)",104 % of control
19,"TTATTTCCAAATTCACTTTT (sugars l4 d11 l5, PS)",124 % of control
20,"TTATTTCCAAATTCACTTTT (sugars l5 d10 l5, PS)",≥ 200 % of control
21,"TTATTTCCAAATTCACTTTT (sugars l5 d11 l4, PS)",119 % of control
22,"TTATTTCCAAATTCACTTTT (sugars ldlllddddddddddlldll, PS)",70.3 % of control

row,Sequence,calcium oscillation score
1,"TTATTTCCAAATTCACTTTT (sugars llddldldddddddddllll, PS)",118 % of control
2,"TTATTTCCAAATTCACTTTT (sugars llddlldddddddddldlll, PS)",123 % of control
3,"TTATTTCCAAATTCACTTTT (sugars llddlldddddddddlldll, PS)",88.8 % of control
4,"TTATTTCCAAATTCACTTTT (sugars lldlddldddddddddllll, PS)",131 % of control
5,"TTATTTCCAAATTCACTTTT (sugars lldldlddddddddddllll, PS)",88.8 % of control
6,"TTATTTCCAAATTCACTTTT (sugars lldldldddddddddldlll, PS)",106 % of control
7,"TTATTTCCAAATTCACTTTT (sugars lldldldddddddddlldll, PS)",110 % of control
8,"TTATTTCCAAATTCACTTTT (sugars lldllddddddddddldlll, PS)",81 % of control
9,"TTATTTCCAAATTCACTTTT (sugars lldllddddddddddlldll, PS)",121 % of control
10,"TTATTTCCAAATTCACTTTT (sugars lllddldddddddddldlll, PS)",108 % of control
11,"TTATTTCCAAATTCACTTTT (sugars lllddldddddddddlldll, PS)",114 % of control
12,"TTATTTCCAAATTCACTTTT (sugars llldlddddddddddldlll, PS)",116 % of control
13,"TTATTTCCAAATTCACTTTT (sugars llldldddddddddllddll, PS)",110 % of control
14,"TTATTTCCAAATTCACTTTT (sugars lllldddddddddlddldll, PS)",96.5 % of control
15,"TTATTTCCAAATTCACTTTT (sugars lllldddddddddldlddll, PS)",102 % of control
16,"TTCACACAACAAACTATTAT (sugars l4 d12 l4, PS)",70.7 % of control
17,"TTCACCCCAAGACACAA (sugars l3 d11 l3, PS)",59 % of control
18,"TTCACTTAGTAACCAA (sugars l4 d8 l4, PS)",62 % of control
